Source: patent US20060122275A1, “Agentfor reducing side effects of diclofenac” (priority 2002, published 2006)

Experiments:
EP3 receptor = biological target: T1, EP3 receptor (Homo sapiens, UniProt P43115); conditions: stated in words, no test described; cited from earlier work
T1 sequence (P43115 1-390): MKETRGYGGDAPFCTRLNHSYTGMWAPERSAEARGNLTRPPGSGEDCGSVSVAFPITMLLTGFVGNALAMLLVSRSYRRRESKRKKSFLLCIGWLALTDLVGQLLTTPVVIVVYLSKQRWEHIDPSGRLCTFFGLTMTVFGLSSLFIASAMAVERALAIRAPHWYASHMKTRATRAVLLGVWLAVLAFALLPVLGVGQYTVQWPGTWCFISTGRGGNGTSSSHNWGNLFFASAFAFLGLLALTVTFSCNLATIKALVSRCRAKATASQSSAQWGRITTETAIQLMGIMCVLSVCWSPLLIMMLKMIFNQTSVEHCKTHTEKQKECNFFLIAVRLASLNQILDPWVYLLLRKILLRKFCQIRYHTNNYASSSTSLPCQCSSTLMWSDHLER

EP1 receptor = biological target: T2, EP1 receptor (Homo sapiens, UniProt P34995); conditions: stated in words, no test described; cited from earlier work
T2 sequence (P34995 1-402): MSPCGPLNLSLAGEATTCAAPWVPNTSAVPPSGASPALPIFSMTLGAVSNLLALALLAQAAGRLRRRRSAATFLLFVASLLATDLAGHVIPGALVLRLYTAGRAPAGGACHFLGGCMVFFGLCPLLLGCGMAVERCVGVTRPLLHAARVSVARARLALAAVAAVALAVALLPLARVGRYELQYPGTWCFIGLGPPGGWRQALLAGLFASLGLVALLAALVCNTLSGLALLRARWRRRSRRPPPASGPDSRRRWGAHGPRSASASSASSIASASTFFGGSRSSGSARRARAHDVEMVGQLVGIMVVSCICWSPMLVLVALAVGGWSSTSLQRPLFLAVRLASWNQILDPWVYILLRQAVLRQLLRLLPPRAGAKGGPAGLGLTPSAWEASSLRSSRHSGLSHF

IP receptor = IP receptor (Homo sapiens, UniProt P43119); conditions: stated in words, no test described; cited from earlier work
Sequence of IP receptor (P43119 whole entry): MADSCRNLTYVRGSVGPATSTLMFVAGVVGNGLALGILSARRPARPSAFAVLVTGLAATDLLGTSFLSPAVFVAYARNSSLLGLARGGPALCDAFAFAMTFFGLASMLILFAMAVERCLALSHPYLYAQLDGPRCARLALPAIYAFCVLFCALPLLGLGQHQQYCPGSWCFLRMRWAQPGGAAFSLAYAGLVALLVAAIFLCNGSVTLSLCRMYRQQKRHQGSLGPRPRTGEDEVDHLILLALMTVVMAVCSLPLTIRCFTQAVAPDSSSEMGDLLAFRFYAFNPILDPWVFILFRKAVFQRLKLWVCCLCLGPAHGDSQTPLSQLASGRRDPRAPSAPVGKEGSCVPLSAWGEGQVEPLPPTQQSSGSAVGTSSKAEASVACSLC

EP4 receptor = EP4 receptor (Homo sapiens, UniProt P35408); conditions: stated in words, no test described; cited from earlier work
Sequence of EP4 receptor (P35408 whole entry): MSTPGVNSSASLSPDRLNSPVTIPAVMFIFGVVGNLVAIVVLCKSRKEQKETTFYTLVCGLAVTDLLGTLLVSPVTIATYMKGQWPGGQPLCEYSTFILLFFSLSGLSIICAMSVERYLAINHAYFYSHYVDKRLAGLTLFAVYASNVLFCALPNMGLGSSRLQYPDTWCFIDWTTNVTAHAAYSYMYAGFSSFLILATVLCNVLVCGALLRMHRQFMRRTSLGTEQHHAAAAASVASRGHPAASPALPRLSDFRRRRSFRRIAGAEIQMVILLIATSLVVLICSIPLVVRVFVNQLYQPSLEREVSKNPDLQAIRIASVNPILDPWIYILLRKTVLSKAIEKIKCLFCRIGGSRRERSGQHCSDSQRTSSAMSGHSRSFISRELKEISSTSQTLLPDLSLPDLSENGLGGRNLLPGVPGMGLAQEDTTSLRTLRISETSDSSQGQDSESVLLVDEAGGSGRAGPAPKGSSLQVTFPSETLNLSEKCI

[1] = tested on: gastrointestinal mucous membrane; conditions: stated in words, no test described; cited from earlier work
[2] = tested on: glycerol-induced nephropathy; experiment: Effect of ornoprostil on glycerol-induced nephropathy; type: in vivo, SPF/Crj line male rats; conditions: serum 48 hours after glycerol, rats
Procedure: SPF/Crj line male rats (9 week-old) were measured for their body weight and then divided into groups in such a manner that average of body weights of respective groups became almost uniform. A 50% glycerol solution (medium: physiological saline) (10 ml/kg) was administered by subcutaneous injection to each rat which had been abstained from water for 48 hours (±2 hours) but under feeding, and about 1.5 ml of blood was collected 48 hours thereafter from jugular vein under ether anesthesia. […] Water was provided 2 hours after the glycerol administration. The thus collected blood was centrifuged (about 4° C., 3,000 rpm, 15 minutes) to obtain serum. The thus obtained serum was subjected to the measurement of […] (to be referred to as UN) (urease-G1DH method) and creatinine (to be referred to as CRE) (creatininase-F-DAOS method) using a biochemical automatic analyzer (AU 400 (trade name), Olympus Optical).

acid secretion = conditions: stated in words, no test described; cited from earlier work
[3] = tested on: Mycobacterium butyricum-induced inflammation, squeaking reaction; experiment: Analgesic effect in inflammation model (squeaking reaction); type: in vivo, Lew/Crj line male rats; conditions: OU administered vs OU un-administered group
Procedure: After measuring body weight of Lew/Crj line male rats, Mycobacterium butyricum cells suspended in liquid paraffin was administered by intracutaneous injection into the sole of left-side hind leg of each animal, under ether anesthesia at a dose of 0.1 ml/animal, thereby inducing inflammation. Also, this day was used as the 1st day of the inflammation induction treatment. […] Also, they were fasted for 16 to 24 hours under free water taking from the previous day of the measurement. […] A rat which was squeaking reaction-negative once or more by the 4 times of judgment after the sample liquid administration was judged analgesic effect-positive, and efficacy ratio (the number of animals having analgesic effect/the number of tested animals) was calculated. In addition, ulcer inhibition ratio was calculated in the same manner as described in (1).

[4] = GC (subcutaneous) + OU (3 μg) oral
[5] = GC (subcutaneous) + OU (10 μg) oral

Question: With `CCCCC(C)(O)C/C=C/[C@H]1[C@H](O)CC(=O)[C@@H]1CCCCCCC(=O)O` (mixture of isomers) [misoprostol active body] as the compound, how does the “Affinity for EP3 receptor” value (EP3 receptor) read?
Answer: strong

Question: And the “Affinity for EP1 receptor” value (EP1 receptor)?
Answer: weak

Question: And the “Affinity for IP receptor” value (IP receptor)?
Answer: hardly has affinity

Question: What about the “Affinity for EP4 receptor” value (EP4 receptor) of the same compound?
Answer: strong

Question: What does the source list for `CCCC[C@H](C)C[C@H](O)/C=C/[C@H]1[C@H](O)CC(=O)[C@@H]1CC(=O)CCCCC(=O)OC` [ornoprostil, 17S,20-dimethyl-6-oxo-prostaglandin E1 methyl ester]?
Answer: Site protection activity [1]: strong; CRE [2, 4]: 1.38 mg/dL; UN [2, 4]: 89.7 mg/dL; CRE [2, 5]: 1.03 mg/dL; UN [2, 5]: 79.9 mg/dL; Acid secretion inhibitory activity (acid secretion): weak; Influence of OU administration upon the analgesic effect of NSAID [3]: did not exert influence
